Assay results reported in US20250367235A1, “SYSTEMS AND METHODS FOR MODULATING A CELL PHENOTYPE” (XCELL BIOSCIENCES, INC., priority 2019, published 2025).

System: PC-3, a prostate cancer cell line
Assay: PBMC tumor cell killing co-culture with anti-PD-1 antibodies, cell viability by CellTiter Glo
Assay type: cell-based, human
Details: 1% O2, 2 PSI above ambient pressure vs ambient conditions; antibody 10 ug/ml; PBMCs with PC-3 at effector to target ratio 20:1; 5 days; average of 21 PBMC isolates; FIG. 2
Procedure: PBMCs were isolated from 21 healthy volunteers. The PBMCs were cultured together with target tumor cells, (PC-3, a prostate cancer cell line), at an effector to target ratio of 20:1. All cells were cultured in RPMI1640 medium supplemented with 10% fetal bovine serum over a 5 day period. PBMCs were not activated with IL-2. Cell viability was measured at the end of the 5 day period by CellTiter Glo Assay (Promega) with 3 or 4 technical replicates. Each of the 21 PBMC isolates, and target cells, was cultured under either ambient conditions, or hypoxic and hyperbaric conditions (1% O2, 2 PSI above ambient pressure), and with or without anti-PD-1 antibodies. The anti-PD-1 antibodies used were Nivolumab and Pembrolizumab (10 ug/ml). Average results across the 21 different PBMC isolates are shown in FIG. 2, with error bars representing the standard error of the mean, and p values were calculated using paired Student's t tests.

Question: Which “effect of hypoxic and hyperbaric conditions on efficacy of treatment at activating PBMCs to kill tumor cells” value does the source give for Nivolumab here?
Answer: The value was “did not have a noticeable effect”.

Question: Pembrolizumab was tested. Which “effect of hypoxic and hyperbaric conditions on efficacy of treatment at activating PBMCs to kill tumor cells” value did it give?
Answer: The value was “more efficient at activating PBMCs to kill tumor cells”.
